This note sets out measurements from BindingDB's records for doi:10.1016/j.bioorg.2016.12.008 (Fayoum University, 2017).

The target of experiment [1] is T1, Prostaglandin G/H synthase 1 (Ovis aries, UniProt P05979).
T1 sequence (P05979 whole entry): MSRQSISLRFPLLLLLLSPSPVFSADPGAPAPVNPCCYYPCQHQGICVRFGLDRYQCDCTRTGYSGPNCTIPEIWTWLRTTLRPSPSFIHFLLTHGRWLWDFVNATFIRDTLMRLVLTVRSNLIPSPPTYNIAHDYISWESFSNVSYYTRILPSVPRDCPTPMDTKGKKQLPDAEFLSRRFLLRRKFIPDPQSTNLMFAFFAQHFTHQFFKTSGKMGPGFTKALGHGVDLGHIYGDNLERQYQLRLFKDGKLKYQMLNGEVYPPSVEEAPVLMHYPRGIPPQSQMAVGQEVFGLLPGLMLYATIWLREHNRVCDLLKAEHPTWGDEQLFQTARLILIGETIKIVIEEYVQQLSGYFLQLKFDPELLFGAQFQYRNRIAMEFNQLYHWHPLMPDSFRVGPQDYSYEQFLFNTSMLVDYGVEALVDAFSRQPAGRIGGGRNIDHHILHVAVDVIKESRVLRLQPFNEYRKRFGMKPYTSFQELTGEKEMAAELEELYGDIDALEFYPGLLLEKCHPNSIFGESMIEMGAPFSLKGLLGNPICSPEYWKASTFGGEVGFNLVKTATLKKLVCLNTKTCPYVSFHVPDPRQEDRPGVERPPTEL
Description: In Vitro Cyclooxygenase (COX) Inhibition Assay. How it is done:
(§1) Different concentrations of either celecoxib or tested compounds were incubated with the enzymes for a period of 5 min at 25 °C. After the incubation period the colorimetric substrate and arachidonic acid were added after that the absorbance was measured at 590 nm using plate reader.

In experiment [2] the target is T2, Prostaglandin G/H synthase 2 (Ovis aries, UniProt P79208).
T2 sequence (P79208 whole entry): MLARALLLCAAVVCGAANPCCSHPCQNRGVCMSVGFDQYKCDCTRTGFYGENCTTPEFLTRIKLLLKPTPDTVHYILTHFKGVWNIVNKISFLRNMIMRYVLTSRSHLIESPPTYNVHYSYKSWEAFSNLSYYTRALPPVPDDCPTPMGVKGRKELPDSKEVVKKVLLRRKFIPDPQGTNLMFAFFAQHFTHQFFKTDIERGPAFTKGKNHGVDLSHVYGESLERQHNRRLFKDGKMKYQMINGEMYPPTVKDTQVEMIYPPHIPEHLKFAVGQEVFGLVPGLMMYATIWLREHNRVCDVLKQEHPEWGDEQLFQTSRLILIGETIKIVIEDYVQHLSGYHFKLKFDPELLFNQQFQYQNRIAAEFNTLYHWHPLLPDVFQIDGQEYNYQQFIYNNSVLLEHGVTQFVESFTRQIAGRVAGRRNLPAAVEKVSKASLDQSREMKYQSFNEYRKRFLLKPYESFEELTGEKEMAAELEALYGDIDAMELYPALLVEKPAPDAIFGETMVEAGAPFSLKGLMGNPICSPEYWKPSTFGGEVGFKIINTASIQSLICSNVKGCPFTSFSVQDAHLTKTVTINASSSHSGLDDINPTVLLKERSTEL
In words: In Vitro Cyclooxygenase (COX) Inhibition Assay. Here is the method: as §1

For orientation: IC50 means the concentration that inhibits the measured activity by half. Low values mean greater potency, high ones weaker potency.

Consider `N#Cc1c(-c2ccccc2)cc(-c2ccc([N+](=O)[O-])cc2)[nH]c1=O` [6-(4-nitrophenyl)-2-oxo-4-phenyl-1,2-dihydropyridine-3-carbonitrile (4a)], for which the IC50 was determined as 12.4 µM in experiment [1] and 3.8 µM in experiment [2].
On the same counts, the results for `N#Cc1c(-c2ccc(F)cc2)cc(-c2ccc([N+](=O)[O-])cc2)[nH]c1=O` [4-(4-Fluorophenyl)-6-(4-nitrophenyl)-2-oxo-1,2-dihydropyridine-3-carbonitrile (4d)] are 13.4 µM and 4.6 µM.
On the same counts, the results for `CS(=O)(=O)Nc1ccc(-c2cc(-c3ccc(F)cc3)c(C#N)c(=O)[nH]2)cc1` [4-(4-Fluorophenyl)-6-(4-methanesulfonylaminophenyl)-2-oxo-1,2-dihydropyridine-3-carbonitrile (4p)] are 10.7 µM and 2.5 µM.
On the same counts, the results for `CC(C)Cc1ccc(-c2cc(-c3ccccc3)c(C#N)c(=O)[nH]2)cc1` [6-(4-Isobutylphenyl)-2-oxo-4-phenyl-1,2-dihydropyridine-3-carbonitrile (4g)] are 13.1 µM and 3.4 µM.
Turning to `Cc1ccc(C2CC(c3ccc(NS(C)(=O)=O)cc3)=NN2c2ccc(S(N)(=O)=O)cc2)cc1` (stereo not drawn) [1-(4-Aminosulfonylphenyl)-3-(4-methanesulfonylaminophenyl)-5-(4-tolyl)-4,5-dihydro-1H-pyrazole (6b)], the IC50 in experiment [1] worked out at 23.6 µM; in experiment [2], 7.5 µM.
The corresponding values for `CC(C)Cc1ccc(-c2cc(-c3ccc(F)cc3)c(C#N)c(=O)[nH]2)cc1` [4-(4-Fluorophenyl)-6-(4-isobutylphenyl)-2-oxo-1,2-dihydropyridine-3-carbonitrile (4j)] are 6.5 µM and 0.93 µM.
The corresponding values for `CC(C)Cc1ccc(-c2cc(-c3cccs3)c(C#N)c(=O)[nH]2)cc1` [6-(4-Isobutylphenyl)-2-oxo-4-(2-thienyl)-1,2-dihydropyridine-3-carbonitrile (4l)] are 12.7 µM and 3.7 µM.
The corresponding values for `CS(=O)(=O)Nc1ccc(-c2cc(-c3ccco3)c(C#N)c(=O)[nH]2)cc1` [4-(2-Furyl)-6-(4-methanesulfonylaminophenyl)-2-oxo-1,2-dihydropyridine-3-carbonitrile (4q)] are 9.8 µM and 2.9 µM.
Consider `N#Cc1c(-c2ccc(Cl)cc2)cc(-c2ccc([N+](=O)[O-])cc2)[nH]c1=O` [4-(4-chlorophenyl)-6-(4-nitrophenyl)-2-oxo-1,2-dihydropyridine-3-carbonitrile (4c)], for which the IC50 in experiment [1] was 23.4 µM; in experiment [2], 7.3 µM.
The corresponding values for `Cc1ccc(-c2cc(-c3ccc(NS(C)(=O)=O)cc3)[nH]c(=O)c2C#N)cc1` [6-(4-Methanesulfonylaminophenyl)-2-oxo-4-(4-tolyl)-1,2-dihydropyridine-3-carbonitrile (4n)] are 8.6 µM and 1.3 µM.
On the same counts, the results for `CS(=O)(=O)Nc1ccc(C2=NN(c3ccc(S(N)(=O)=O)cc3)C(c3ccccc3)C2)cc1` (stereo not drawn) [1-(4-Aminosulfonylphenyl)-3-(4-methanesulfonylaminophenyl)-5-phenyl-4,5-dihydro-1H-pyrazole (6a)] are 7.6 µM and 1.3 µM.
On the same counts, the results for `Cc1ccc(-c2cc(-c3ccc([N+](=O)[O-])cc3)[nH]c(=O)c2C#N)cc1` [6-(4-Nitrophenyl)-2-oxo-4-(p-tolyl)-1,2-dihydropyridine-3-carbonitrile (4b)] are 12.9 µM and 2.9 µM.
Consider `CS(=O)(=O)Nc1ccc(C2=NN(c3ccc(S(N)(=O)=O)cc3)C(c3ccc(F)cc3)C2)cc1` (stereo not drawn) [1-(4-Aminosulfonylphenyl)-5-(4-fluorophenyl)-3-(4-methanesulfonylaminophenyl)-4,5-dihydro-1H-pyrazole (6d)], for which the figures for the IC50 in experiment [1] and in experiment [2] were 18.7 µM and 3.9 µM, respectively.
On the same counts, the results for `N#Cc1c(-c2ccco2)cc(-c2ccc([N+](=O)[O-])cc2)[nH]c1=O` [4-(2-Furyl)-6-(4-nitrophenyl)-2-oxo-1,2-dihydropyridine-3-carbonitrile (4e)] are 8.9 µM and 1.2 µM.
On the same counts, the results for `CS(=O)(=O)Nc1ccc(C2=NN(c3ccc(S(N)(=O)=O)cc3)C(c3cccs3)C2)cc1` (stereo not drawn) [1-(4-Aminosulfonylphenyl)-5-(2-thienyl)-3-(4-methanesulfonylaminophenyl)-4,5-dihydro-1H-pyrazole (6f)] are 25.1 µM and 7.8 µM.
As for `CC(C)Cc1ccc(-c2cc(-c3ccco3)c(C#N)c(=O)[nH]2)cc1` [4-(2-Furyl)-6-(4-isobutylphenyl)-2-oxo-1,2-dihydropyridine-3-carbonitrile (4k)], the IC50 worked out at 7.3 µM in experiment [1] and 1.11 µM in experiment [2].
On the same counts, the results for `Cc1ccc(-c2cc(-c3ccc(CC(C)C)cc3)[nH]c(=O)c2C#N)cc1` [6-(4-Isobutylphenyl)-2-oxo-4-(p-tolyl)-1,2-dihydropyridine-3-carbonitrile (4h)] are 11.2 µM and 2.7 µM.
On the same counts, the results for `N#Cc1c(-c2cccs2)cc(-c2ccc([N+](=O)[O-])cc2)[nH]c1=O` [6-(4-nitrophenyl)-2-oxo-4-(thiophen-2-yl)-1,2-dihydropyridine-3-carbonitrile (4f)] are 6.8 µM and 0.87 µM.
On to `CC(C)Cc1ccc(-c2cc(-c3ccc(Cl)cc3)c(C#N)c(=O)[nH]2)cc1` [4-(4-Chlorophenyl)-6-(4-isobutylphenyl)-2-oxo-1,2-dihydropyridine-3-carbonitrile (4i)], for which the results for the IC50 in experiment [1] and in experiment [2] were 14.2 µM and 5.1 µM, respectively.
The corresponding values for `CS(=O)(=O)Nc1ccc(C2=NN(c3ccc(S(N)(=O)=O)cc3)C(c3ccco3)C2)cc1` (stereo not drawn) [1-(4-Aminosulfonylphenyl)-5-(2-furyl)-3-(4-methanesulfonylaminophenyl)-4,5-dihydro-1H-pyrazole (6e)] are 16.5 µM and 3.5 µM.
The corresponding values for `CS(=O)(=O)Nc1ccc(-c2cc(-c3cccs3)c(C#N)c(=O)[nH]2)cc1` [6-(4-Methanesulfonylaminophenyl)-2-oxo-4-(2-thienyl)-1,2-dihydropyridine-3-carbonitrile (4r)] are 32.1 µM and 10.2 µM.
The corresponding values for `CS(=O)(=O)Nc1ccc(-c2cc(-c3ccc(Cl)cc3)c(C#N)c(=O)[nH]2)cc1` [4-(4-Chlorophenyl)-6-(4-methanesulfonylaminophenyl)-2-oxo-1,2-dihydropyridine-3-carbonitrile (4o)] are 15.3 µM and 3.4 µM.
Consider `CS(=O)(=O)Nc1ccc(C2=NN(c3ccc(S(N)(=O)=O)cc3)C(c3ccc(Cl)cc3)C2)cc1` (stereo not drawn) [1-(4-Aminosulfonylphenyl)-5-(4-chlorophenyl)-3-(4-methanesulfonylaminophenyl)-4,5-dihydro-1H-pyrazole (6c)], for which the IC50 in experiment [1] is 9.7 µM; in experiment [2], 2.4 µM.
The corresponding values for `CS(=O)(=O)Nc1ccc(-c2cc(-c3ccccc3)c(C#N)c(=O)[nH]2)cc1` [6-(4-Methanesulfonylaminophenyl)-2-oxo-4-phenyl-1,2-dihydropyridine-3-carbonitrile (4m)] are 9.4 µM and 1.6 µM.
